Experimental data published in US20150217046A1, “DOSING REGIMENS FOR SUBCUTANEOUSLY INFUSIBLE ACIDIC COMPOSITIONS” (SynAgile Corporation, priority 2012, published 2015).
Where two headings read alike, the source gives them in different places.

Columns and labels:
[1] = Swelling/induration and histopathology after continuous subcutaneous infusion (Example 1); assay type: in vivo, Yucatan minipigs; conditions: for microscopic changes at infused site: pH 4.6
Text: The pharmaceutical compositions were citrate buffered at pH 4.6 where most, but not all, of the LDEE is in the salt form, i.e., there is also some free base.

[2] = Infusion site reactions, intermittent subcutaneous infusion of 200 mg/mL LDEE pH 4.5 (Example 2); assay type: in vivo, minipigs
Text: Each infusion site was spaced a minimum of 2.5 inches (6.3 cm) apart from any other infusion site.
In all cases, the infusion site reaction constituted a swelling of 0.5-4.0 cm diameter, typically 0.5-1.5 cm.

[3] = Infusion site reactions, intermittent and continuous subcutaneous infusion of 100 mg/mL LDEE pH 4.5 (Example 3); assay type: in vivo, minipigs
Text: There were four treatment groups:
A: Six infusions, intermittent with ibuprofen.
B: Six infusions, intermittent with no ibuprofen.
C: Six infusions, continuous infusion with ibuprofen.
D: Six infusions, continuous infusion with no ibuprofen.

[4] = Infusion site reactions, continuous subcutaneous infusion of 100 mg/mL LDEE pH 3.7 (Example 5); assay type: in vivo, minipigs; conditions: for Fraction of sites with a reaction (firmness): pH 3.7, 100 mg/mL (0.44M) LDEE, continuous s.c. 8 h, 280 mg per site, N = 15 infusions
Method: The 5.6 mL volume was divided between two simultaneously infused sites, each site receiving 2.8 mL, i.e., 280 mg LDEE. At each site the flow rate was 0.35 mL/hour, i.e. 35 mg LDEE/hour was infused. The number of sites infused on the first day totaled in the four minipigs 8, and was 7 on the 8th day, because of dislodgement of a cannula from one site. The total number of infused sites was 15.

[5] = Skin symptoms and behavior after subcutaneous LDEE infusion (Example 7); assay type: in vivo, minipigs
[6] = Plasma LDEE concentrations after 8 hours of subcutaneous infusion (Example 8); design: species or system minipigs; conditions: minipig, in vivo
Method: In addition to measuring the LD plasma concentrations as described in Example 6, also the plasma LDEE concentrations were measured.

[7] = Rate of hydrolysis of LD esters in solution; assay type: physicochemical
Method: At a particular temperature and pH, the LDEs formed of LD and of different alcohols are hydrolyzed prior to their infusion at different rates. […] The rate of hydrolysis of LDE salts also depends on the anion, i.e., on the acid forming the LDE salt. LDE is hydrolyzed more rapidly when carboxylate anions and/or carboxylic acids replace the chloride anion or HCl. The rate of hydrolysis of the salt formed of LDEE and acetic acid can be about 3 times faster at about pH 4.5 at about 23° C. than that of LDEE.HCl, the salt formed of LDEE and HCl. The rate of hydrolysis at a particular pH and temperature can therefore depend on the buffering agent, e.g., citric acid and/or citrate anions, becoming faster when their concentration is elevated. Typically, the concentration of the buffering ions, i.e., the combined concentrations of citrates and citric acid, is between about 5 mM and 100 mM, for example between about 10 mM and 50 mM. The rate of hydrolysis can increase, for example, when the buffering citric acid-citrate concentration is increased.
In aqueous LDE salt pharmaceutical compositions, the hydrolysis rates generally decrease as the pH decreases, and the shelf life of the LDE salt consequently increases, unless the pH is about 1.7±0.5 or less. […] In acidic pharmaceutical compositions the amines of the LDEs are protonated, making the LDEs cations. […] The rates of hydrolysis generally increase with temperature, and may at least about double or about triple for each 10° C. increase, correspondingly decreasing upon cooling.

[8] = minipig A day 1: 90 mg LDEE (100 mg/mL, pH 3.7) s.c. continuous over 8 h, oral Lodosyn

Compound: CCOC(=O)[C@@H](N)Cc1ccc(O)c(O)c1 [LDEE, levodopa ethyl ester]
- swelling/induration of infused sites ([1]; 1,142 mg LDEE over 16 hours continuous s.c., 326 mg/mL and 220 mg/mL, citrate buffered pH 4.6): Most, but not all, of the infused sites were swollen and/or developed firm indurations
- microscopic changes at infused site ([1]; one month after infusion of 328 mg LDEE/mL (1.45 M)): mild to moderate granulomatous inflammation of the panniculus
- microscopic changes at infused site ([1]; one week after infusion of 220 mg LDEE per mL (0.98 M)): mild thrombus formation in the blood vessels of the panniculus, with minimal hemorrhage and subacute inflammation
- microscopic changes at infused site ([1]; three weeks after infusion of 220 mg LDEE per mL (0.98 M), minipig A): minimal hemorrhage of the dermis and panniculus
- microscopic changes at infused site ([1]; three weeks after infusion of 220 mg LDEE per mL (0.98 M), minipig B): mild granulomatous inflammation
- diameter of swelling (infusion site reaction) ([2]; 200 mg/mL (0.89 M) LDEE pH 4.5, 140 mg, intermittent s.c., typically 0.5-1.5 cm): 0.5-4.0 cm
- rate of small granuloma formation ([2]; 200 mg/mL (0.89M) LDEE pH 4.5, 140 mg, 14 days post-infusion): 33%
- infusion site reactions ([2]; 200 mg/mL (0.89 M) LDEE pH 4.5, 14-15 days post-infusion): 8 out of 24
- diameter of firm swelling (infusion site reaction) ([3]; 100 mg/mL (0.44 M) LDEE pH 4.5, 281 mg over 16 h s.c.): 0.5-1.5 cm
- # of Infusion Site Reactions/# of Infusion Sites ([3]; 100 mg/mL (0.44 M) LDEE pH 4.5, 281 mg over 16 h s.c., Treatment A intermittent with ibuprofen, 3 Days Post-Infusion): 2/6
- # of Infusion Site Reactions/# of Infusion Sites ([3]; 100 mg/mL (0.44 M) LDEE pH 4.5, 281 mg over 16 h s.c., Treatment A intermittent with ibuprofen, 10 Days Post-Infusion): 5/6
- # of Infusion Site Reactions/# of Infusion Sites ([3]; 100 mg/mL (0.44 M) LDEE pH 4.5, 281 mg over 16 h s.c., Treatment A intermittent with ibuprofen, 15 Days Post-Infusion): 0/6
- # of Infusion Site Reactions/# of Infusion Sites ([3]; 100 mg/mL (0.44 M) LDEE pH 4.5, 281 mg over 16 h s.c., Treatment A intermittent with ibuprofen, Immediately Post-Infusion): 0/6
- # of Infusion Site Reactions/# of Infusion Sites ([3]; 100 mg/mL (0.44 M) LDEE pH 4.5, 281 mg over 16 h s.c., Treatment B intermittent, no ibuprofen, 3 Days Post-Infusion): 1/6
- # of Infusion Site Reactions/# of Infusion Sites ([3]; 100 mg/mL (0.44 M) LDEE pH 4.5, 281 mg over 16 h s.c., Treatment B intermittent, no ibuprofen, 10 Days Post-Infusion): 1/6
- # of Infusion Site Reactions/# of Infusion Sites ([3]; 100 mg/mL (0.44 M) LDEE pH 4.5, 281 mg over 16 h s.c., Treatment B intermittent, no ibuprofen, 15 Days Post-Infusion): 0/6
- # of Infusion Site Reactions/# of Infusion Sites ([3]; 100 mg/mL (0.44 M) LDEE pH 4.5, 281 mg over 16 h s.c., Treatment B intermittent, no ibuprofen, Immediately Post-Infusion): 0/6
- # of Infusion Site Reactions/# of Infusion Sites ([3]; 100 mg/mL (0.44 M) LDEE pH 4.5, 281 mg over 16 h s.c., Treatment C continuous with ibuprofen, 3 Days Post-Infusion): 2/6
- # of Infusion Site Reactions/# of Infusion Sites ([3]; 100 mg/mL (0.44 M) LDEE pH 4.5, 281 mg over 16 h s.c., Treatment C continuous with ibuprofen, 10 Days Post-Infusion): 6/6
- # of Infusion Site Reactions/# of Infusion Sites ([3]; 100 mg/mL (0.44 M) LDEE pH 4.5, 281 mg over 16 h s.c., Treatment C continuous with ibuprofen, 15 Days Post-Infusion): 0/6
- # of Infusion Site Reactions/# of Infusion Sites ([3]; 100 mg/mL (0.44 M) LDEE pH 4.5, 281 mg over 16 h s.c., Treatment C continuous with ibuprofen, Immediately Post-Infusion): 0/6
- # of Infusion Site Reactions/# of Infusion Sites ([3]; 100 mg/mL (0.44 M) LDEE pH 4.5, 281 mg over 16 h s.c., Treatment D continuous, no ibuprofen, 3 Days Post-Infusion): 4/6
- # of Infusion Site Reactions/# of Infusion Sites ([3]; 100 mg/mL (0.44 M) LDEE pH 4.5, 281 mg over 16 h s.c., Treatment D continuous, no ibuprofen, 10 Days Post-Infusion): 1/6
- # of Infusion Site Reactions/# of Infusion Sites ([3]; 100 mg/mL (0.44 M) LDEE pH 4.5, 281 mg over 16 h s.c., Treatment D continuous, no ibuprofen, 15 Days Post-Infusion): 0/6
- # of Infusion Site Reactions/# of Infusion Sites ([3]; 100 mg/mL (0.44 M) LDEE pH 4.5, 281 mg over 16 h s.c., Treatment D continuous, no ibuprofen, Immediately Post-Infusion): 0/6
- infusion site reactions, all treatments pooled ([3]; 100 mg/mL (0.44 M) LDEE pH 4.5, 14-15 days post-infusion): 0 out of 24
- granuloma formation ([3]; 281 mg LDEE in 100 mg/mL (0.44 M), pH 4.5, 24 out of 24 infusions): no granuloma formation
- diameter of reactions (slightly raised and firm) ([4]; 100 mg/mL (0.44 M) LDEE pH 3.7, continuous s.c. 8 h, 0.35 mL/hour per site): about 1 cm
- fraction of sites with reactions ([4]; 100 mg/mL (0.44 M) LDEE pH 3.7, dose divided between two continuously infused sites): 1/15
- Fraction of sites with a reaction (firmness) ([4]; 0 hrs after end of infusion): 0.067
- Fraction of sites with a reaction (firmness) ([4]; 12 hrs after end of infusion): 0.067
- Fraction of sites with a reaction (firmness) ([4]; 24 hrs after end of infusion): 0.067
- Fraction of sites with a reaction (firmness) ([4]; 3 days after end of infusion): 0.067
- Fraction of sites with a reaction (firmness) ([4]; 7 days after end of infusion): 0.067
- Fraction of sites with a reaction (firmness) ([4]; 14 days after end of infusion): 0
- behavior of the minipigs ([5]; LDEE dose rate raising plasma LD above 10,000 ng/mL, even above 15,000 ng/mL): did not result in a readily observable change in the behavior of the minipigs
- diameter of slightly raised swelling at infused site ([5]; minipig D only, 7 days after first infusion and again after end of 8th day reinfusion, 560 mg LDEE 100 mg/mL pH 3.7): about 1 cm
- Plasma LDEE, 480 minutes after start of infusion [6]: 6.9 ng/mL
- rate of hydrolysis relative to LDME ([7]; near pH 7, about 37° C.): about four times faster
- time to hydrolysis ([7]; neutral pH): within hours or less
- Plasma LD, 480 minutes after start of infusion (Average of the 10 minipig/day infusions of Table 10): 7,870 ng/mL
- Plasma LD, 480 minutes after start of infusion (minipig A day 1: 90 mg LDEE (100 mg/mL, pH 3.7) s.c. continuous over 8 h): 1,051 ng/mL
- 40 minutes Post-Infusion plasma LD [8]: 1,093 ng/mL
- End of Infusion Plasma LD [8]: 1,051 ng/mL
- 40 minutes Post-Infusion plasma LD (minipig A day 8: 90 mg LDEE (100 mg/mL, pH 3.7) re-infused at contralateral site over 8 h, pre-infused with 15 units human hyaluronidase): 691 ng/mL
